What was measured:
ISC-enriched organoids [1] = assay: Primary screen, 384-well 2.5-D organoid differentiation (ENR+CD, 6 days, Target Selective Inhibitor Library, vs whole-plate median): ATP (CellTiter-Glo 3D, CTG); conditions: for Dose.FC.CTG: FC vs plate median; for Z.CTG: standard z score of FC
ISC-enriched organoids [2] = assay: Primary screen, 384-well 2.5-D organoid differentiation (ENR+CD, 6 days): carbachol-induced lysozyme secretion (LYZ.S); assay type: cell-based, murine; conditions: FC vs plate median
Description: (§1) High-throughput screening.

ISC-enriched organoids [3] = assay: Primary screen, 384-well 2.5-D organoid differentiation (ENR+CD, 6 days): basal lysozyme secretion (LYZ.NS); assay type: cell-based, murine; conditions: for Dose.FC.LYZ.NS: FC vs plate median; for Z.LYZ.NS: standard z score of FC
Description: as §1

[4] = primary screen, dose 0.08 uM, ENR+CD 6 days
[5] = primary screen, dose 0.40 uM, ENR+CD 6 days
[6] = primary screen, dose 2.00 uM, ENR+CD 6 days
[7] = primary screen, dose 10.00 uM, ENR+CD 6 days

Structure (SMILES)	Dose.FC.CTG (ISC-enriched organoids [1]; [4]) [log 2 fold change]	Z.CTG (ISC-enriched organoids [1]; primary screen, dose 0.08 uM)	Dose.FC.CTG (ISC-enriched organoids [1]; [5]) [log 2 fold change]	Z.CTG (ISC-enriched organoids [1]; primary screen, dose 0.40 uM)	Dose.FC.CTG (ISC-enriched organoids [1]; [6]) [log 2 fold change]	Z.CTG (ISC-enriched organoids [1]; primary screen, dose 2.00 uM)	Dose.FC.CTG (ISC-enriched organoids [1]; [7]) [log 2 fold change]	Z.CTG (ISC-enriched organoids [1]; primary screen, dose 10.00 uM)	Dose.FC.LYZ.S (ISC-enriched organoids [2]; [4]) [log 2 fold change]	Dose.FC.LYZ.S (ISC-enriched organoids [2]; [5]) [log 2 fold change]	Dose.FC.LYZ.S (ISC-enriched organoids [2]; [6]) [log 2 fold change]	Dose.FC.LYZ.S (ISC-enriched organoids [2]; [7]) [log 2 fold change]	Dose.FC.LYZ.NS (ISC-enriched organoids [3]; [4]) [log 2 fold change]	Z.LYZ.NS (ISC-enriched organoids [3]; primary screen, dose 0.08 uM)	Dose.FC.LYZ.NS (ISC-enriched organoids [3]; [5]) [log 2 fold change]	Z.LYZ.NS (ISC-enriched organoids [3]; primary screen, dose 0.40 uM)	Dose.FC.LYZ.NS (ISC-enriched organoids [3]; [6]) [log 2 fold change]	Z.LYZ.NS (ISC-enriched organoids [3]; primary screen, dose 2.00 uM)	Dose.FC.LYZ.NS (ISC-enriched organoids [3]; [7]) [log 2 fold change]	Z.LYZ.NS (ISC-enriched organoids [3]; primary screen, dose 10.00 uM)	other results
CCN1CCN(c2ccc(Nc3cc(N(C)C(=O)Nc4c(Cl)c(OC)cc(OC)c4Cl)ncn3)cc2)CC1 [BGJ398 (NVP-BGJ398)]	−0.054	−0.128	0.026	0.063	−0.185	−0.442	−1.500	−3.583	−0.036	0.002	−0.062	−0.350	−0.002	−0.017	−0.060	−0.520	−0.052	−0.450	−0.269	−2.345	–
CC(C)CCN1c2nc(Nc3cc(F)c(O)c(F)c3)ncc2N(C)C(=O)C1C (centres unmarked) [BI-D1870]	0.186	0.444	0.029	0.069	−0.012	−0.028	−0.700	−1.673	0.162	0.158	0.008	−0.378	0.141	1.225	0.126	1.099	−0.066	−0.574	−0.285	−2.483	–
C/C(=C\C(=O)Nc1ccccc1C(=O)O)c1ccc2ccccc2c1 [BIBR 1532]	0.223	0.533	−0.047	−0.113	−0.034	−0.080	0.030	0.072	0.028	0.107	−0.081	−0.114	0.032	0.282	0.043	0.377	−0.013	−0.117	−0.062	−0.536	–
COc1ccc2c(c1)c(CC(=O)N1CCOCC1)c(C)n2C(=O)c1ccc(Cl)cc1 [BML-190]	−0.003	−0.007	−0.099	−0.237	−0.106	−0.254	−0.106	−0.254	0.060	−0.037	0.017	0.067	0.072	0.623	−0.017	−0.152	0.116	1.011	0.209	1.823	–
COc1ccnc2[nH]cc(C(=O)C(=O)N3CCN(C(=O)c4ccccc4)C[C@H]3C)c12 [BMS-378806]	0.233	0.557	0.102	0.243	−0.289	−0.691	−1.155	−2.758	0.159	0.007	−0.142	−0.322	0.141	1.231	−0.007	−0.061	−0.100	−0.870	−0.227	−1.977	–
O=C(Oc1cc(S(=O)(=O)c2ccccc2)ccc1[N+](=O)[O-])c1ccc(Cl)cc1 [BTB06584]	0.275	0.657	0.288	0.688	−0.180	−0.431	0.199	0.475	0.222	0.042	0.039	0.019	0.091	0.795	0.025	0.214	0.024	0.206	−0.031	−0.268	–
O=C(Nc1cccc(Nc2ncc(Br)c(NCCc3cnc[nH]3)n2)c1)N1CCCC1 [BX-912]	–	–	–	–	–	–	–	–	–	–	–	–	–	–	–	–	–	–	–	–	Dose.FC.CTG (ISC-enriched organoids [1]; Dose 0.08 uM, ENR+CD, 6 days): 0.043 log 2 fold change; Z.CTG (ISC-enriched organoids [1]; Dose 0.08 uM): 0.103; Dose.FC.CTG (ISC-enriched organoids [1]; Dose 0.40 uM, ENR+CD, 6 days): 0.054 log 2 fold change; Z.CTG (ISC-enriched organoids [1]; Dose 0.40 uM): 0.129; Dose.FC.CTG (ISC-enriched organoids [1]; Dose 2.00 uM, ENR+CD, 6 days): −0.246 log 2 fold change; Z.CTG (ISC-enriched organoids [1]; Dose 2.00 uM): −0.587; Dose.FC.CTG (ISC-enriched organoids [1]; Dose 10.00 uM, ENR+CD, 6 days): −0.397 log 2 fold change; Z.CTG (ISC-enriched organoids [1]; Dose 10.00 uM): −0.949; Dose.FC.LYZ.S (ISC-enriched organoids [2]; Dose 0.08 uM, ENR+CD, 6 days): 0.038 log 2 fold change; Dose.FC.LYZ.S (ISC-enriched organoids [2]; Dose 0.40 uM, ENR+CD, 6 days): 0.042 log 2 fold change; Dose.FC.LYZ.S (ISC-enriched organoids [2]; Dose 2.00 uM, ENR+CD, 6 days): −0.161 log 2 fold change; Dose.FC.LYZ.S (ISC-enriched organoids [2]; Dose 10.00 uM, ENR+CD, 6 days): −0.272 log 2 fold change; Dose.FC.LYZ.NS (ISC-enriched organoids [3]; Dose 0.08 uM, ENR+CD, 6 days): 0.010 log 2 fold change; Z.LYZ.NS (ISC-enriched organoids [3]; Dose 0.08 uM): 0.090; Dose.FC.LYZ.NS (ISC-enriched organoids [3]; Dose 0.40 uM, ENR+CD, 6 days): 0.017 log 2 fold change; Z.LYZ.NS (ISC-enriched organoids [3]; Dose 0.40 uM): 0.151; Dose.FC.LYZ.NS (ISC-enriched organoids [3]; Dose 2.00 uM, ENR+CD, 6 days): −0.089 log 2 fold change; Z.LYZ.NS (ISC-enriched organoids [3]; Dose 2.00 uM): −0.771; Dose.FC.LYZ.NS (ISC-enriched organoids [3]; Dose 10.00 uM, ENR+CD, 6 days): −0.196 log 2 fold change; Z.LYZ.NS (ISC-enriched organoids [3]; Dose 10.00 uM): −1.704
CNC(=O)[C@H](Cc1ccccc1)NC(=O)[C@H](CC(C)C)[C@H](CSc1cccs1)C(=O)NO [Batimastat (BB-94)]	0.035	0.084	−0.095	−0.226	−0.049	−0.117	−0.283	−0.676	0.053	0.028	0.056	−0.107	−0.003	−0.025	0.005	0.042	0.081	0.707	−0.075	−0.649	–
O=C(/C=C/c1cccc(S(=O)(=O)Nc2ccccc2)c1)NO [Belinostat (PXD101)]	−0.227	−0.543	−0.055	−0.133	−0.782	−1.868	−1.122	−2.679	−0.059	0.042	−0.264	−0.327	0.008	0.067	0.129	1.125	−0.173	−1.510	−0.196	−1.709	–
CC(C)C[C@H](NC(=O)[C@@H](NC(=O)c1cccc(-c2ccccc2)n1)[C@@H](C)O)B(O)O [CEP-18770 (Delanzomib)]	–	–	–	–	–	–	–	–	–	–	–	–	–	–	–	–	–	–	–	–	Dose.FC.CTG (ISC-enriched organoids [1]; Dose 0.08 uM, ENR+CD, 6 days): −0.953 log 2 fold change; Z.CTG (ISC-enriched organoids [1]; Dose 0.08 uM): −2.276; Dose.FC.CTG (ISC-enriched organoids [1]; Dose 0.40 uM, ENR+CD, 6 days): −1.642 log 2 fold change; Z.CTG (ISC-enriched organoids [1]; Dose 0.40 uM): −3.923; Dose.FC.CTG (ISC-enriched organoids [1]; Dose 2.00 uM, ENR+CD, 6 days): −0.990 log 2 fold change; Z.CTG (ISC-enriched organoids [1]; Dose 2.00 uM): −2.364; Dose.FC.CTG (ISC-enriched organoids [1]; Dose 10.00 uM, ENR+CD, 6 days): −1.148 log 2 fold change; Z.CTG (ISC-enriched organoids [1]; Dose 10.00 uM): −2.742; Dose.FC.LYZ.S (ISC-enriched organoids [2]; Dose 0.08 uM, ENR+CD, 6 days): −0.179 log 2 fold change; Dose.FC.LYZ.S (ISC-enriched organoids [2]; Dose 0.40 uM, ENR+CD, 6 days): −0.159 log 2 fold change; Dose.FC.LYZ.S (ISC-enriched organoids [2]; Dose 2.00 uM, ENR+CD, 6 days): −0.180 log 2 fold change; Dose.FC.LYZ.S (ISC-enriched organoids [2]; Dose 10.00 uM, ENR+CD, 6 days): −0.149 log 2 fold change; Dose.FC.LYZ.NS (ISC-enriched organoids [3]; Dose 0.08 uM, ENR+CD, 6 days): −0.108 log 2 fold change; Z.LYZ.NS (ISC-enriched organoids [3]; Dose 0.08 uM): −0.937; Dose.FC.LYZ.NS (ISC-enriched organoids [3]; Dose 0.40 uM, ENR+CD, 6 days): −0.076 log 2 fold change; Z.LYZ.NS (ISC-enriched organoids [3]; Dose 0.40 uM): −0.664; Dose.FC.LYZ.NS (ISC-enriched organoids [3]; Dose 2.00 uM, ENR+CD, 6 days): −0.063 log 2 fold change; Z.LYZ.NS (ISC-enriched organoids [3]; Dose 2.00 uM): −0.546; Dose.FC.LYZ.NS (ISC-enriched organoids [3]; Dose 10.00 uM, ENR+CD, 6 days): −0.035 log 2 fold change; Z.LYZ.NS (ISC-enriched organoids [3]; Dose 10.00 uM): −0.308
